# Results taken from patent US9212151B2, “Heterocyclic compounds useful for kinase inhibition” (Amitech Therapeutic Solutions, Inc., priority 2010, dated 2015).
# Test: MTT cell viability assay, compounds at 5, 1 and 0.2 μM, 48 hours
# Format: cell-based
# Settings: human, A549 tumor cells
# Experimental: MTT assay is used to determine cell proliferation, percent of viable cells, and cytotoxicity. MTT (3-[4,5-dimethylthiazol-2-yl]2,5-diphenyltetrazolium bromide) is a yellow dye, which can be absorbed by the living cells and be reduced to purplish blue formazan crystals by succinate tetrazolium reductase in mitochondria. Formazan formation can therefore be used to assess and determine the survival rate of cells.
# Tumor cells (A549) were plated at 2500 cells/well of a 96-well plate in complete growth medium (DMEM+10% FBS, antibiotic/antimycotic, fungizone, L-glutamine, sodium pyruvate, and non-essential amino acids). The cells were allowed to grow overnight. After cell proliferation, the cells were washed and re-suspended in fresh culture medium and placed in 96 well plates.
# To each of the 96 well plates containing A549 and a control, 5, 1, and 0.2 μM of the exemplary compounds 1-200 were add. The 96 well plates were incubated for 48 hours. Cell viability was measured by adding MTT (Sigma) at 5 mg/ml for 4 h to the cells and then removing the medium and resuspending each well in 50 μl DMSO to solubilize the crystals. The 96-well plates were read on a plate-scanning spectrophotometer (BioTek) at an absorbance of […]. The survival rate of cells was calculated based on the measurement of absorption at the 570 nm wavelength by enzyme immunoassay analyzer.
SMILES,"viability at 48 h, 0.2 µM (0.2 μM) [%]","viability at 48 h, 1 µM (1 μM) [%]","viability at 48 h, 5 µM (5 μM) [%]","viability at 48 h, 0.2 µM (0.2 μM compound) [%]","viability at 48 h, 1 µM (1 μM compound) [%]","viability at 48 h, 5 µM (5 μM compound) [%]"
Oc1ccc(Nc2nnc(-c3cccc(Cl)c3)[nH]2)cc1 [Compound 182],> 70,> 70,> 70,–,–,–
Cc1nccc(Oc2cccc(-c3nnc(Nc4cccc(C(F)(F)F)c4)[nH]3)c2)n1 [Compound 55],50 to 70,50 to 70,< 50,–,–,–
COc1ccc2c(Oc3cccc(-c4nnc(Nc5cccc(C(F)(F)F)c5)s4)c3)ccnc2c1 [Compound 49],> 70,> 70,50 to 70,–,–,–
Nc1cc(Oc2ccc(-c3nnc(Nc4cccc(C(F)(F)F)c4)o3)cc2)ccn1 [Compound 59],> 70,> 70,> 70,–,–,–
Nc1cc(Oc2ccc(-c3nnc(Nc4cccc(C(F)(F)F)c4)[nH]3)cc2)nc(Sc2ccccn2)n1 [Compound 152],> 70,> 70,> 70,–,–,–
CSc1nc(N)cc(Oc2ccc(-c3nnc(Nc4ccc(C)c(C)c4)[nH]3)cc2)n1 [Compound 125],> 70,> 70,< 50,–,–,–
Oc1ccc(Nc2nnc(-c3cccc(C(F)(F)F)c3)[nH]2)cc1 [Compound 181],> 70,> 70,> 70,–,–,–
CSc1nc(N)cc(Oc2cccc(-c3nnc(Nc4cccc(C(F)(F)F)c4)o3)c2)n1 [Compound 36],> 70,> 70,> 70,–,–,–
FC(F)(F)c1cccc(Nc2nnc(-c3cccc(Oc4ccncc4C(F)(F)F)c3)o2)c1 [Compound 40],> 70,> 70,> 70,–,–,–
COc1cc(-c2nnc(Nc3cccc(C(F)(F)F)c3)[nH]2)ccc1Oc1ccncc1 [Compound 108],> 70,> 70,< 50,–,–,–
Nc1nccc(Oc2cccc(-c3nnc(Nc4cccc(C(F)(F)F)c4)[nH]3)c2)n1 [Compound 15],> 70,> 70,> 70,–,–,–
Nc1cc(Oc2ccc(-c3nnc(Nc4cccc(C(F)(F)F)c4)[nH]3)cc2)ccn1 [Compound 4],> 70,> 70,50 to 70,–,–,–
FC(F)(F)c1cccc(Nc2nnc(-c3cccc(Oc4ccncc4C(F)(F)F)c3)[nH]2)c1 [Compound 20],> 70,> 70,50 to 70,–,–,–
FC(F)(F)c1cccc(Nc2nnc(-c3ccc(Oc4ccncc4)cc3)[nH]2)c1 [Compound 3],> 70,50 to 70,< 50,–,–,–
Nc1cc(Oc2cccc(-c3nnc(Nc4cccc(C(F)(F)F)c4)[nH]3)c2)ncn1 [Compound 16],> 70,> 70,> 70,–,–,–
CSc1nc(N)cc(Oc2ccc(-c3nnc(Nc4cc(C(C)(C)C)n[nH]4)[nH]3)cc2)n1 [Compound 132],> 70,> 70,< 50,–,–,–
CSc1nc(N)cc(Oc2ccc(-c3nnc(Nc4cccc(C(F)(F)F)c4F)[nH]3)cc2)n1 [Compound 137],> 70,< 50,< 50,–,–,–
Cc1ccc2nccc(Oc3ccc(-c4nnc(Nc5cccc(C(F)(F)F)c5)[nH]4)cc3)c2c1 [Compound 162],> 70,> 70,> 70,–,–,–

SMILES,"viability at 48 h, 0.2 µM (0.2 μM) [%]","viability at 48 h, 1 µM (1 μM) [%]","viability at 48 h, 5 µM (5 μM) [%]","viability at 48 h, 0.2 µM (0.2 μM compound) [%]","viability at 48 h, 1 µM (1 μM compound) [%]","viability at 48 h, 5 µM (5 μM compound) [%]"
CSc1nc(N)cc(Oc2ccc(Nc3nnc(-c4cccc(Cl)c4)[nH]3)cc2)n1 [Compound 180],> 70,> 70,50 to 70,–,–,–
CSc1nc(N)cc(Oc2ccc(-c3nnc(Nc4ccc(C#N)cc4)[nH]3)cc2)n1 [Compound 127],> 70,> 70,50 to 70,–,–,–
Cc1nc(N)cc(Oc2ccc(-c3nnc(Nc4cccc(C(F)(F)F)c4)[nH]3)cc2)n1 [Compound 82],> 70,> 70,50 to 70,–,–,–
FC(F)(F)c1cccc(Nc2nnc(-c3ccc(Oc4ncnc5[nH]ccc45)cc3)s2)c1 [Compound 45],> 70,50 to 70,< 50,–,–,–
FC(F)(F)c1cccc(Nc2nnc(-c3ccc(Oc4ccnc5ccccc45)cc3)s2)c1 [Compound 47],> 70,> 70,> 70,–,–,–
COc1ccc2c(Oc3cccc(-c4nnc(Nc5cccc(C(F)(F)F)c5)[nH]4)c3)ccnc2c1 [Compound 22],> 70,> 70,> 70,–,–,–
FC(F)(F)c1cccc(Nc2nnc(-c3ccc(Oc4ccnc5ccccc45)cc3)[nH]2)c1 [Compound 12],> 70,> 70,50 to 70,–,–,–
O=c1cc(COc2cccc(-c3nnc(Nc4cccc(C(F)(F)F)c4)[nH]3)c2)c2ccccc2[nH]1 [Compound 171],> 70,> 70,> 70,–,–,–
FC(F)(F)c1cccc(Nc2nnc(-c3ccc(Oc4ccnc5ccccc45)cc3)o2)c1 [Compound 34],> 70,> 70,> 70,–,–,–
CSc1nc(N)cc(Oc2ccc(-c3nnc(Nc4cc(C)ccc4F)[nH]3)cc2)n1 [Compound 121],> 70,50 to 70,< 50,–,–,–
CSc1nc(N)cc(Oc2ccc(-c3nnc(Nc4cccc(C)c4C)[nH]3)cc2)n1 [Compound 126],< 50,< 50,< 50,–,–,–
Nc1cc(Oc2cccc(-c3nnc(Nc4cccc(C(F)(F)F)c4)[nH]3)c2)ccn1 [Compound 18],50 to 70,< 50,< 50,–,–,–
Nc1cc(Oc2ccc(-c3nnc(Nc4cccc(C(F)(F)F)c4)[nH]3)cc2)nc(SCCO)n1 [Compound 115],> 70,> 70,> 70,–,–,–
COc1ccc2c(Oc3ccc(Nc4nnc(-c5cccc(Cl)c5)[nH]4)cc3)ccnc2c1 [Compound 198],–,–,–,> 70,> 70,> 70
FC(F)(F)c1cccc(Nc2nnc(-c3ccc(Oc4nccc(Cl)n4)cc3)o2)c1 [Compound 26],> 70,> 70,> 70,–,–,–
COc1cc(Oc2cccc(-c3nnc(Nc4cccc(C(F)(F)F)c4)[nH]3)c2)ncn1 [Compound 93],> 70,> 70,50 to 70,–,–,–
CNc1cc(Oc2ccc(-c3nnc(Nc4cccc(C(F)(F)F)c4)[nH]3)cc2)nc(SC)n1 [Compound 118],> 70,> 70,> 70,–,–,–
FC(F)(F)c1cccc(Nc2nnc(-c3cccc(Oc4ncnc5[nH]ccc45)c3)o2)c1 [Compound 60],> 70,> 70,> 70,–,–,–
